Assay results as given in PubChem BioAssay AID1963425 (Molecular Pharmacology Branch, DTP, NCI, 2024).
One block for each compound: values may come before it.

System: 323965-272-R-J2-PDC complex spheroid growth, % test/control
Assay: Anticancer human tumor 323965-272-R-J2-PDC patient-derived pancreatic carcinoma cell line growth inhibition [Asc]
Conditions: for IC50: curve of first compound; for viability, T/C: stronger effect = lower value
Outline: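 Tumor cells were grown as multicellular spheroids with stromal HUVEC and mesenchymal stem cells and treated singly or in combination. Concentrations fell in half-log steps from the clinical Cmax, or from 10 microM where none was known.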

[1] = second compound 0.0316 µM, first compound 0.0316 µM
[2] = second compound 0.0316 µM, first compound 0.1 µM
[3] = second compound 0.0316 µM, first compound 0.316 µM
[4] = second compound 0.0316 µM, first compound 1 µM
[5] = second compound 0.1 µM, first compound 0.0316 µM
[6] = second compound 0.1 µM, first compound 0.1 µM
[7] = second compound 0.1 µM, first compound 0.316 µM
[8] = second compound 0.1 µM, first compound 1 µM
[9] = second compound 0.316 µM, first compound 0.0316 µM
[10] = second compound 0.316 µM, first compound 0.1 µM
[11] = second compound 0.316 µM, first compound 0.316 µM
[12] = second compound 0.316 µM, first compound 1 µM
[13] = second compound 1 µM, first compound 0.0316 µM
[14] = second compound 1 µM, first compound 0.1 µM
[15] = second compound 1 µM, first compound 0.316 µM
[16] = second compound 1 µM, first compound 1 µM
[17] = second compound 3.16 µM, first compound 0.0316 µM
[18] = second compound 3.16 µM, first compound 0.1 µM
[19] = second compound 3.16 µM, first compound 0.316 µM
[20] = second compound 3.16 µM, first compound 1 µM
[21] = second compound 10 µM, first compound 0.0316 µM
[22] = second compound 10 µM, first compound 0.1 µM
[23] = second compound 10 µM, first compound 0.316 µM
[24] = second compound 10 µM, first compound 1 µM
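Further: compound exposure lasted 7 days starting three days after spheroid seeding.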
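Wherever viability, T/C is given: 100% = DMSO vehicle control wells with viability set relative to vehicle.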

IC50 (second compound 0.0316 µM): > 10000 nM | IC50 (second compound 0.1 µM): > 10000 nM | IC50 (second compound 0.316 µM): > 10000 nM | IC50 (second compound 1 µM): > 10000 nM | IC50 (second compound 3.16 µM): > 10000 nM | IC50 (second compound 10 µM): > 10000 nM
SMILES: O=C(c1cc(Cc2n[nH]c(=O)c3ccccc23)ccc1F)N1CCN(C(=O)C2CC2)CC1 + Cc1c(S(C)(=O)=O)c(-c2cc(F)cc(N3CCN(c4ccc(NS(=O)(=O)c5ccc(NC(CCN6CCC(C(=O)OCCCP(=O)(O)O)CC6)CSc6ccccc6)c(S(=O)(=O)C(F)(F)F)c5)cc4)CC3)c2)c(-c2ccc(Cl)cc2)n1C(C)C
viability, T/C [1]: 87.5% | viability, T/C [2]: 92.7% | viability, T/C [3]: 95.7% | viability, T/C [4]: 98.9% | viability, T/C (second compound 0.0316 µM, first compound 3.16 µM): 98.3% | viability, T/C (second compound 0.0316 µM, first compound 10 µM): 89% | viability, T/C [5]: 103% | viability, T/C [6]: 93% | viability, T/C [7]: 98.1% | viability, T/C [8]: 91.2% | viability, T/C (second compound 0.1 µM, first compound 3.16 µM): 95% | viability, T/C (second compound 0.1 µM, first compound 10 µM): 88.2% | viability, T/C [9]: 92.4% | viability, T/C [10]: 90.5% | viability, T/C [11]: 92.8% | viability, T/C [12]: 87.7% | viability, T/C (second compound 0.316 µM, first compound 3.16 µM): 91.6% | viability, T/C (second compound 0.316 µM, first compound 10 µM): 74.7% | viability, T/C [13]: 85.6% | viability, T/C [14]: 79.3% | viability, T/C [15]: 83.8% | viability, T/C [16]: 84.2% | viability, T/C (second compound 1 µM, first compound 3.16 µM): 80.8% | viability, T/C (second compound 1 µM, first compound 10 µM): 72.2% | viability, T/C [17]: 85.9% | viability, T/C [18]: 76.5% | viability, T/C [19]: 78.6% | viability, T/C [20]: 74.2% | viability, T/C (second compound 3.16 µM, first compound 3.16 µM): 78.4% | viability, T/C (second compound 3.16 µM, first compound 10 µM): 60.2% | viability, T/C [21]: 72.4% | viability, T/C [22]: 75.2% | viability, T/C [23]: 64.9% | viability, T/C [24]: 71.1% | viability, T/C (second compound 10 µM, first compound 3.16 µM): 81.1% | viability, T/C (second compound 10 µM, first compound 10 µM): 51.8%

IC50 (second compound 0.0316 µM): 139 nM | IC50 (second compound 0.1 µM): 133 nM | IC50 (second compound 0.316 µM): 81.6 nM | IC50 (second compound 1 µM): 51.8 nM | IC50 (second compound 3.16 µM): 29.6 nM | IC50 (second compound 10 µM): 20.9 nM
SMILES: O=C(c1ccc(F)c(F)c1Nc1ccc(I)cc1F)N1CC(O)([C@@H]2CCCCN2)C1 + Cc1c(S(C)(=O)=O)c(-c2cc(F)cc(N3CCN(c4ccc(NS(=O)(=O)c5ccc(NC(CCN6CCC(C(=O)OCCCP(=O)(O)O)CC6)CSc6ccccc6)c(S(=O)(=O)C(F)(F)F)c5)cc4)CC3)c2)c(-c2ccc(Cl)cc2)n1C(C)C
viability, T/C (second compound 0.0316 µM, first compound 0.00316 µM): 91% | viability, T/C (second compound 0.0316 µM, first compound 0.01 µM): 89.6% | viability, T/C [1]: 77.3% | viability, T/C [2]: 54.5% | viability, T/C [3]: 35.2% | viability, T/C [4]: 16.4% | viability, T/C (second compound 0.1 µM, first compound 0.00316 µM): 115% | viability, T/C (second compound 0.1 µM, first compound 0.01 µM): 103% | viability, T/C [5]: 76.5% | viability, T/C [6]: 59.6% | viability, T/C [7]: 30% | viability, T/C [8]: 15.1% | viability, T/C (second compound 0.316 µM, first compound 0.00316 µM): 98.2% | viability, T/C (second compound 0.316 µM, first compound 0.01 µM): 98.7% | viability, T/C [9]: 68.1% | viability, T/C [10]: 47.4% | viability, T/C [11]: 21.9% | viability, T/C [12]: 10.4% | viability, T/C (second compound 1 µM, first compound 0.00316 µM): 88.8% | viability, T/C (second compound 1 µM, first compound 0.01 µM): 70.5% | viability, T/C [13]: 61.5% | viability, T/C [14]: 40.3% | viability, T/C [15]: 16.7% | viability, T/C [16]: 7.35% | viability, T/C (second compound 3.16 µM, first compound 0.00316 µM): 82% | viability, T/C (second compound 3.16 µM, first compound 0.01 µM): 63.5% | viability, T/C [17]: 52.6% | viability, T/C [18]: 28.2% | viability, T/C [19]: 10.3% | viability, T/C [20]: 3.52% | viability, T/C (second compound 10 µM, first compound 0.00316 µM): 78.6% | viability, T/C (second compound 10 µM, first compound 0.01 µM): 66.5% | viability, T/C [21]: 39.3% | viability, T/C [22]: 22.3% | viability, T/C [23]: 7.23% | viability, T/C [24]: 3.38%
